Where “and” joins values, the source holds several entries; their conditions need not be identical. Equal values may be shown once. Read-outs that look alike come from different tables or passages of the source.
What was measured:
YANK3 = molecular target: T1, YANK3 (Homo sapiens, UniProt Q86UX6); experiment: KINOMEscan binding assay; conditions: read-out: % Ctrl @ 10000 nM
T1 construct: purchased DiscoveRx (KINOMEscan, LeadHunter Discovery services)

PRP4 = PRP4 (Homo sapiens, UniProt Q13523); experiment: KINOMEscan binding assay; conditions: read-out: % Ctrl @ 10000 nM
PRP4, sequence (Q13523 whole entry): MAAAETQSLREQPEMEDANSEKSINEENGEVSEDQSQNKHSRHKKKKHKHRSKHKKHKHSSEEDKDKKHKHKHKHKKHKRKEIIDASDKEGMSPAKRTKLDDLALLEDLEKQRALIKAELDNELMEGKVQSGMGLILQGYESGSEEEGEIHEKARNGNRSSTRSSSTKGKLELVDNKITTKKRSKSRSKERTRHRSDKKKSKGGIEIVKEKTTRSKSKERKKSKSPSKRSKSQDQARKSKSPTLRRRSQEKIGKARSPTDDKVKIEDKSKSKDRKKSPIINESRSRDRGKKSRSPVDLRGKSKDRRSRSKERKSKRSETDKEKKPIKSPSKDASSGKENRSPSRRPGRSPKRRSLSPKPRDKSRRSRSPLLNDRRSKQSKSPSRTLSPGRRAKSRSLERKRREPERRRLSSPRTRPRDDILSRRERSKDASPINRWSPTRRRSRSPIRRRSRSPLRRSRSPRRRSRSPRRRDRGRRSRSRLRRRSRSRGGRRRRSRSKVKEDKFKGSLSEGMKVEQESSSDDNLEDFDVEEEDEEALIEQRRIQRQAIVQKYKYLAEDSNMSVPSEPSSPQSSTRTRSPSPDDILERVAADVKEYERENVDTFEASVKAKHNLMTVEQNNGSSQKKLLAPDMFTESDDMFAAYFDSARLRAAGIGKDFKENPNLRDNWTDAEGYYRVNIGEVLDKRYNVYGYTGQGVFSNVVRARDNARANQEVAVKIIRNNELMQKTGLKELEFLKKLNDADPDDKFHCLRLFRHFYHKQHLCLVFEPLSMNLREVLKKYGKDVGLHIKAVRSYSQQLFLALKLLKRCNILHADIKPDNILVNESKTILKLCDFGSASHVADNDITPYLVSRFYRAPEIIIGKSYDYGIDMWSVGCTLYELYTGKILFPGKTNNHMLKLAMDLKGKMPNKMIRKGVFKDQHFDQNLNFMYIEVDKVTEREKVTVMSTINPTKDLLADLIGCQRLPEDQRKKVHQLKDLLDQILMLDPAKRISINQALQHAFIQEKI

EGFR (L858R, T790M) = EGFR (L858R, T790M) (Homo sapiens, UniProt P00533, L858R/T790M); experiment: KINOMEscan binding assay; conditions: read-out: % Ctrl @ 10000 nM
CSNK1A1 = CSNK1A1 (Homo sapiens, UniProt P48729); experiment: KINOMEscan binding assay; conditions: read-out: % Ctrl @ 10000 nM
DRAK1 = DRAK1 (Homo sapiens, UniProt Q9UEE5); experiment: KINOMEscan binding assay; conditions: read-out: % Ctrl @ 10000 nM
DRAK1, sequence (Q9UEE5 whole entry): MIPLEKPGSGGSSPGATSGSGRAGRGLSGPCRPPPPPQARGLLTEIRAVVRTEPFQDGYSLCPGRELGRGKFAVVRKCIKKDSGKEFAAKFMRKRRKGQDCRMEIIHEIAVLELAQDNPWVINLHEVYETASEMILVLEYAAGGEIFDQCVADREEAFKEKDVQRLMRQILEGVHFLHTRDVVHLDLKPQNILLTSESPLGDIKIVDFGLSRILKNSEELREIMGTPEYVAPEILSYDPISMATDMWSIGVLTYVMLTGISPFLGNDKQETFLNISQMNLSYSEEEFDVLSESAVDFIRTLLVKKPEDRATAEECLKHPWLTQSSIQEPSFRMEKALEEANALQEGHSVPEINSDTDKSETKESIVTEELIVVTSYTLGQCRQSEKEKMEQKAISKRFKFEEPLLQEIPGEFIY

[1] = Determination of compound in plasma and brain by LC-MS/MS; type: in vivo; conditions: TMHT mice of experiment 5.5, 30 mg/kg orally for 8 weeks; for concentration in cortex: cortex at sacrifice; for concentration in plasma: plasma at sacrifice; for concentration in rest of brain: rest of brain at sacrifice; for concentration at 8 weeks: TMHT, mouse, oral, 30 mg/kg
Procedure: Plasma and brain samples derived from the experiments in 5.5 were pooled from single time point and were analysed for the presence and concentration of Comparative Compound 324 and Compound A by LC-MS/MS after protein precipitation over the calibration range of 0.5-10,000 ng/mL. Chrysin (Sigma®), control mouse plasma and brain (obtained from a commercial supplier) were used as internal standards.
All instrument control, data collection, peak area integration and storage were performed using Thermo Finnigan TSQ Quantum Ultra Mass Spectrometer in conjunction with LCQuan software (v.2.5.6). The mass spectrometer response (peak area ratio of analyte to internal standard) of each calibration standard was calculated by Watson LIMS (v. 7.2) and plotted against the nominal concentration. A weighted least square quadratic regression analysis was used to calculate an equation of the calibration line using one of the standard fits in Watson LIMS. Concentration of Comparative Compound 324 and Compound A in the plasma and brain samples were back calculated from the calibration lines to 3 significant figures. All results reported are from samples that passed the following criteria:
[formula] • At least 7 calibration standards within ±20% RE of their target concentrations. • At least 66% of QC samples within ±20% RE of their respective target values. Within at least one acceptable at each level when n=3 and two when n=6.
The analytical method was as summarised below in Table 14:
In total 32 samples were analysed. Quality control (QC) samples at concentration of 10, 100 and 1000 ng/mL were freshly prepared on the day of the analysis.

ROCK1 = ROCK1 (Homo sapiens, UniProt Q13464); experiment: KINOMEscan binding assay; conditions: read-out: % Ctrl @ 10000 nM
PLK1 = PLK1 (Homo sapiens, UniProt P53350); experiment: KINOMEscan binding assay; conditions: read-out: % Ctrl @ 10000 nM
RIOK2 = RIOK2 (Homo sapiens, UniProt Q9BVS4); experiment: KINOMEscan binding assay; conditions: read-out: % Ctrl @ 10000 nM
RIOK2, sequence (Q9BVS4 whole entry): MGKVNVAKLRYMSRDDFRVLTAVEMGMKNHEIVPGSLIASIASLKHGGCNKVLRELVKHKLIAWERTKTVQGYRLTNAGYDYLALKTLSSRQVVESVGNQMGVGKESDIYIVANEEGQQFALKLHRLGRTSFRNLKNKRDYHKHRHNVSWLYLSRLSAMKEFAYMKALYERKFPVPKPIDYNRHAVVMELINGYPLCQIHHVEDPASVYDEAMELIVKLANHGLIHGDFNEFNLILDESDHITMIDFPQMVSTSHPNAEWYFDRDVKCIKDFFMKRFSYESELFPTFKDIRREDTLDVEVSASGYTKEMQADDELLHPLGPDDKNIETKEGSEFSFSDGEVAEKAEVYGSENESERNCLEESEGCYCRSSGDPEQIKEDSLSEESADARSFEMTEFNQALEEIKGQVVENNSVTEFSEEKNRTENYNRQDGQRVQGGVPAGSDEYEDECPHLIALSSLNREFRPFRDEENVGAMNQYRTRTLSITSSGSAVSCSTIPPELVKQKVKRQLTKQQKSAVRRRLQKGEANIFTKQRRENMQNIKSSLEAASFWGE

PRKD3 = PRKD3 (Homo sapiens, UniProt O94806); experiment: KINOMEscan binding assay; conditions: read-out: % Ctrl @ 10000 nM
GRK4 = GRK4 (Homo sapiens, UniProt P32298); experiment: KINOMEscan binding assay; conditions: read-out: % Ctrl @ 10000 nM
GRK4, sequence (P32298 whole entry): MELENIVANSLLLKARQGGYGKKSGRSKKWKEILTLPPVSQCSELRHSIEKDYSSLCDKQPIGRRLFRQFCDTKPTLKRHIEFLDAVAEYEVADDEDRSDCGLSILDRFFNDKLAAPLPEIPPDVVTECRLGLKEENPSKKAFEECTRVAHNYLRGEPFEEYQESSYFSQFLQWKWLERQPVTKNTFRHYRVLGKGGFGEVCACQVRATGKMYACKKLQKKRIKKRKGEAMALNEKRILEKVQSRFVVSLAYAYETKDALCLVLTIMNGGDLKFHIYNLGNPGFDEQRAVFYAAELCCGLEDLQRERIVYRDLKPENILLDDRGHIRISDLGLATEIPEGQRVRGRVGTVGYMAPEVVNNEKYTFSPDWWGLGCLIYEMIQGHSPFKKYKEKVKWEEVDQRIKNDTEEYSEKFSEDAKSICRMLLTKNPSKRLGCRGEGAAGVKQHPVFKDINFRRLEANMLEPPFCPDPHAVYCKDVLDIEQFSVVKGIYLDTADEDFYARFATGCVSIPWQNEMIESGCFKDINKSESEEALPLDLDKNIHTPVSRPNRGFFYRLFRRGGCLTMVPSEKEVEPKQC

TRKB = TRKB (Homo sapiens, UniProt Q16620); experiment: KINOMEscan binding assay; conditions: read-out: % Ctrl @ 10000 nM
PLK4 = PLK4 (Homo sapiens, UniProt O00444); experiment: KINOMEscan binding assay; conditions: read-out: % Ctrl @ 10000 nM
ALK (L1196M) = ALK (L1196M) (Homo sapiens, UniProt Q9UM73, L1196M); experiment: KINOMEscan binding assay; conditions: read-out: % Ctrl @ 10000 nM
KIT (V559D, T670I) = KIT (V559D, T670I) (Homo sapiens, UniProt P10721, T670I/V559D); experiment: KINOMEscan binding assay; conditions: read-out: % Ctrl @ 10000 nM
PDGFRA = PDGFRA (Homo sapiens, UniProt P16234); experiment: KINOMEscan binding assay; conditions: read-out: % Ctrl @ 10000 nM
TNNI3K = TNNI3K (Homo sapiens, UniProt Q59H18); experiment: KINOMEscan binding assay; conditions: read-out: % Ctrl @ 10000 nM
TNNI3K, sequence (Q59H18 whole entry): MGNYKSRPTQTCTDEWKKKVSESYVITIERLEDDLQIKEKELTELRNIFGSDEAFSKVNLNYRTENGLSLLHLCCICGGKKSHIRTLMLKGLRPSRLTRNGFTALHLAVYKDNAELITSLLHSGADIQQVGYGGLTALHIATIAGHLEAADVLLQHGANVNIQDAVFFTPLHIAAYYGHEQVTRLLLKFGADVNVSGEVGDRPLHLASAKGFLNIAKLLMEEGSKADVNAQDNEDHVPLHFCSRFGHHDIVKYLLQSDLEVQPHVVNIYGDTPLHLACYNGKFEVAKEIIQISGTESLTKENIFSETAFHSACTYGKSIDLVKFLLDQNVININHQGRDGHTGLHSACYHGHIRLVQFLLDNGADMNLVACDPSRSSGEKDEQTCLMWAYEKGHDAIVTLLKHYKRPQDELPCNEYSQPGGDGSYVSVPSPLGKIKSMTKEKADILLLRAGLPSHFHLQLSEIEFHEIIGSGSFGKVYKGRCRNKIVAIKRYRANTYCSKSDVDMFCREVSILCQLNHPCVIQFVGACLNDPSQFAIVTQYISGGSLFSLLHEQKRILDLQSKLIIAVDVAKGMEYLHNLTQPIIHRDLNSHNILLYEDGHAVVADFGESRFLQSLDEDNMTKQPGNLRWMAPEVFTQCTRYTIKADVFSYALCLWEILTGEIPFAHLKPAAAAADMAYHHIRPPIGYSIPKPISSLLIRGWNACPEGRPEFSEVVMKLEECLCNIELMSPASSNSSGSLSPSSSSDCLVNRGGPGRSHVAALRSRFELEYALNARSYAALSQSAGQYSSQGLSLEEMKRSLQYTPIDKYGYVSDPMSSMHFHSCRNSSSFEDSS

GCN2 (Kin.Dom.2, S808G) = GCN2 (Kin.Dom.2, S808G) (Homo sapiens, UniProt Q9P2K8, S808G); experiment: KINOMEscan binding assay; conditions: read-out: % Ctrl @ 10000 nM
GCN2 (Kin.Dom.2, S808G), sequence (Q9P2K8 590-1001 S808G limits assumed): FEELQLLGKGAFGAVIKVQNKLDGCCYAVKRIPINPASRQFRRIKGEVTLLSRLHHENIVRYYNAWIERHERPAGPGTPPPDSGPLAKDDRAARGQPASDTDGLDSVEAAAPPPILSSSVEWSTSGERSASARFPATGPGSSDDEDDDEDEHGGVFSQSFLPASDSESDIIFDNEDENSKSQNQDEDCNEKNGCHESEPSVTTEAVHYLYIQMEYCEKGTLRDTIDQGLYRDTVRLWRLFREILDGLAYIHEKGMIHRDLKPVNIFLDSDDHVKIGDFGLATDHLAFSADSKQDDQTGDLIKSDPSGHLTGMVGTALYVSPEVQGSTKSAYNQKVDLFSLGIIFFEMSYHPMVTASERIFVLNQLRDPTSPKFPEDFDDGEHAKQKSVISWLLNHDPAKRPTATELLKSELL

HepG2 cells = experiment: in vitro; conditions: human, 72 h
Procedure: (§1) The cytotoxicity screening panel was performed by Cyprotex® according to their established protocols. HepG2 cells were plated on 96-well tissue culture treated black walled clear bottomed polystyrene plates, 100 μL per well. The cells were dosed with compound A and comparative compound 324 (WO2012080727; 5-(1,3-benzoxazol-2-yl)-4-(pyridine-4-yl)pyrimidin-2-amine) amine) at […], 0.1 μM, 0.4 μM, 1.0 μM, 4.0 μM, 10 μM, 40 μM and 100 μM. At the end of the incubation period (72 h), the cells were loaded with the relevant dye/antibody for each cell health marker. The plates were then scanned using an automated fluorescent cellular imager, ArrayScan® VTI (Thermo Scientific Cellomics).
(§2) Cytotoxicity was assessed using a multiparametric approach using High Content Screening (HCS) O'Brien P and Haskins J R (2007) High Content Screening: A Powerful Approach to Systems Cell Biology and Drug Discovery Ed. Taylor et al.; 415-425). […] This assay scores compounds across direct and indirect measure of toxicity.

in vitro = conditions: human
Procedure: as §1, §2

[2] = molecular target: ABL1 (F317L) phosphorylated (Homo sapiens, UniProt P00519, F317L); experiment: KINOMEscan binding assay; conditions: read-out: % Ctrl @ 10000 nM
PIK3CG = PIK3CG (Homo sapiens, UniProt P48736); experiment: KINOMEscan binding assay; conditions: read-out: % Ctrl @ 10000 nM
PIK3CG, sequence (P48736 whole entry): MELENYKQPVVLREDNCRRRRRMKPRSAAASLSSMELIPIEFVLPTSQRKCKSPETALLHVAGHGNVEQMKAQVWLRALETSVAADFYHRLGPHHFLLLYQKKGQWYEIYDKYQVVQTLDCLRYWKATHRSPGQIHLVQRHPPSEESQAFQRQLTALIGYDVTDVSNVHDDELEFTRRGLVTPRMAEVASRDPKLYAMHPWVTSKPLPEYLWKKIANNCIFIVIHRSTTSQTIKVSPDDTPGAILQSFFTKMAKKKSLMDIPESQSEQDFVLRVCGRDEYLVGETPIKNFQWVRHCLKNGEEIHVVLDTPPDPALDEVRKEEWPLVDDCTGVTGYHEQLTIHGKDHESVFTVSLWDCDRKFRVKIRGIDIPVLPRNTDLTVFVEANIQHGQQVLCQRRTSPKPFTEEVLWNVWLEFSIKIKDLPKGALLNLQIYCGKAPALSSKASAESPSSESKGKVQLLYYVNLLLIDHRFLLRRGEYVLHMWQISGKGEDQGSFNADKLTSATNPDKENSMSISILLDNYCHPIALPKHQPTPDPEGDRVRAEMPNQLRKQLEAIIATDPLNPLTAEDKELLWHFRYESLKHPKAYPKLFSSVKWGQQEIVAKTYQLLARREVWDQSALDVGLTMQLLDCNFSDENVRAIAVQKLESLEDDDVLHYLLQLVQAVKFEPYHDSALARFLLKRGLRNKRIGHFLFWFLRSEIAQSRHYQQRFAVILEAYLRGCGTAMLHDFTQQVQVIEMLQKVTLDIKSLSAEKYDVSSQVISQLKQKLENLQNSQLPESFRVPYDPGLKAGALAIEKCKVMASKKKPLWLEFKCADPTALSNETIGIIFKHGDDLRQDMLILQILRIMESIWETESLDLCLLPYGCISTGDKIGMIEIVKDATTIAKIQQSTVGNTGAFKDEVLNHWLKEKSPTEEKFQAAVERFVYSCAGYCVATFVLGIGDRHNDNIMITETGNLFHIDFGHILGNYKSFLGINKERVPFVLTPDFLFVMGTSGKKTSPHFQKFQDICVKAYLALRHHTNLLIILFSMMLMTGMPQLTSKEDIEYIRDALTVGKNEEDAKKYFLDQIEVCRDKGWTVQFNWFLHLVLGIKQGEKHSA

[3] = molecular target: ABL1 (T315I) phosphorylated (Homo sapiens, UniProt P00519, T315I); experiment: KINOMEscan binding assay; conditions: read-out: % Ctrl @ 10000 nM
VRK2 = molecular target: T2, VRK2 (Homo sapiens, UniProt Q86Y07); experiment: KINOMEscan binding assay; conditions: read-out: % Ctrl @ 10000 nM
T2 construct: purchased DiscoveRx (KINOMEscan, LeadHunter Discovery services)

[4] = hippocampus at sacrifice, LC-MS/MS, one value per mouse
[5] = Cell membrane permeability AC50
[6] = Mitochondrial membrane potential AC50

| SMILES | remaining binding at 10 µM (YANK3) [%] | remaining binding at 10 µM (PRP4) [%] | remaining binding at 10 µM (EGFR (L858R, T790M)) [%] | remaining binding at 10 µM (CSNK1A1) [%] | remaining binding at 10 µM (DRAK1) [%] | concentration in cortex ([1]; LC-MS/MS, one value per mouse) | concentration in hippocampus [1, 4] | concentration in plasma ([1]; LC-MS/MS, one value per mouse) | concentration in rest of brain ([1]; LC-MS/MS, one value per mouse) | remaining binding at 10 µM (ROCK1) [%] | remaining binding at 10 µM (PLK1) [%] | remaining binding at 10 µM (RIOK2) [%] | remaining binding at 10 µM (PRKD3) [%] | remaining binding at 10 µM (GRK4) [%] | remaining binding at 10 µM (TRKB) [%] | remaining binding at 10 µM (PLK4) [%] | remaining binding at 10 µM (ALK (L1196M)) [%] | remaining binding at 10 µM (KIT (V559D, T670I)) [%] | remaining binding at 10 µM (PDGFRA) [%] | remaining binding at 10 µM (TNNI3K) [%] | also measured |
| --- | --- | --- | --- | --- | --- | --- | --- | --- | --- | --- | --- | --- | --- | --- | --- | --- | --- | --- | --- | --- | --- |
| Nc1ncc(-c2nc3ccccc3o2)c(-c2ccncc2)n1 [Comparative Compound 324, 5-(1,3-benzoxazol-2-yl)-4-(pyridine-4-yl)pyrimidin-2-amine] | 97 | 70 | 51 | 4.2 | 100 | 0.0143 µg/mL and 0.108 µg/mL and 0.00198 µg/mL and 0.0105 µg/mL and 0.0107 µg/mL and 0.000536 µg/mL and 0.0153 µg/mL and 0.00641 µg/mL | 11.9 ng/mL and 87.0 ng/mL and BLQ (2×) and 12.6 ng/mL and 11.5 ng/mL and 15.1 ng/mL and 6.12 ng/mL | 0.295 µg/mL and 1.45 µg/mL and 0.0342 µg/mL and 0.23 µg/mL and 0.225 µg/mL and 0.0105 µg/mL and 0.287 µg/mL and 0.138 µg/mL | 0.0162 µg/mL and 0.122 µg/mL and 0.00997 µg/mL and 0.00975 µg/mL and 0.0108 µg/mL and 0.00112 µg/mL and 0.016 µg/mL and 0.00709 µg/mL | 96 | 90 | 87 | 91 | 100 | 67 | 69 | 100 | 98 | 86 | 100 | remaining binding at 10 µM (GCN2 (Kin.Dom.2, S808G)): 98%; Cell membrane permeability MEC (HepG2 cells): (11.1↑) μM; Cytochrome c MEC (HepG2 cells): (22.2↑) μM; DNA structure MEC (HepG2 cells): (7.33↑) μM; Mitochondrial mass MEC (HepG2 cells): (16.8↓) μM; Mitochondrial membrane potential MEC (HepG2 cells): (17.2↑) μM; AC50 at 72 h (in vitro; Cell Count AC50): > 100 µM; AC50 at 72 h (in vitro; [5]): > 100 µM; AC50 at 72 h (in vitro; Cytochrome c AC50): 82 µM; AC50 at 72 h (in vitro; DNA structure AC50): > 100 µM; AC50 at 72 h (in vitro; Mitochondrial mass AC50): > 100 µM; AC50 at 72 h (in vitro; [6]): > 100 µM; AC50 at 72 h (in vitro; Nuclear size AC50): > 100 µM; remaining binding at 10 µM [2]: 75%; remaining binding at 10 µM (PIK3CG): 32%; remaining binding at 10 µM [3]: 85%; remaining binding at 10 µM (VRK2): 86% |
| CNc1c(C(N)=O)c2ccccn2c1C(=O)c1ccc(F)cc1 [Compound A, 2-methyl-amino-3-[(4-fluorophenyl)carbonyl]indolizine-1-carboxamide] | 100 | 90 | 88 | 0.95 | 95 | BLQ (2×) and 12.6 ng/mL and 9.67 ng/mL and 14.9 ng/mL and 8.92 ng/mL and 2.51 ng/mL and 17.7 ng/mL | BLQ (3×) and 8.23 ng/mL and 12.8 ng/mL and 9.33 ng/mL and 10.3 ng/mL | 0.0126 µg/mL and 0.207 µg/mL and 0.203 µg/mL and 0.274 µg/mL and 0.188 µg/mL and 0.0169 µg/mL and 0.319 µg/mL and 0.0256 µg/mL | BLQ (2×) and 12.7 ng/mL and 10.5 ng/mL and 14.1 ng/mL and 12.9 ng/mL and 19.0 ng/mL and 2.66 ng/mL | 100 | 82 | 66 | 74 | 97 | 76 | 70 | 100 | 99 | 89 | 78 | concentration at 8 weeks ([1]; brain, SEM 1.05, read-out: concentration in the brain (Mean ±SEM)): ~0.0111 µg/mL; concentration at 8 weeks ([1]; hippocampus, hippocampus at sacrifice, LC-MS/MS, one value per mouse, read-out: concentration in hippocampus): 0.0105 µg/mL; remaining binding at 10 µM (GCN2 (Kin.Dom.2, S808G)): 66%; Cell Count MEC (HepG2 cells): 2.75↓ μM; Cell membrane permeability MEC (HepG2 cells): 1.26↑ μM; DNA structure MEC (HepG2 cells): 15.1↑ μM; Mitochondrial mass MEC (HepG2 cells): 1.34↑ μM; Mitochondrial membrane potential MEC (HepG2 cells): 3.31↓ μM; Nuclear size MEC (HepG2 cells): 2.44↑ μM; AC50 at 72 h (in vitro; Cell Count AC50): 7.88 µM; AC50 at 72 h (in vitro; [5]): > 40 µM; AC50 at 72 h (in vitro; Cytochrome c AC50): > 100 µM; AC50 at 72 h (in vitro; DNA structure AC50): > 100 µM; AC50 at 72 h (in vitro; Mitochondrial mass AC50): > 40 µM; AC50 at 72 h (in vitro; [6]): 43.4 µM; AC50 at 72 h (in vitro; Nuclear size AC50): 12.3 µM; remaining binding at 10 µM [2]: 46%; remaining binding at 10 µM (PIK3CG): 79%; remaining binding at 10 µM [3]: 100%; remaining binding at 10 µM (VRK2): 35% |

From US10815230B2, “Casein kinase 1 delta inhibitor” (ELECTROPHORETICS LIMITED, priority 2015, dated 2020)
